Measurements: US8313752B2, “Macrocyclic lactone combination compositions, vaccines and methods for producing same” (Merial Limited, priority 2009, dated 2012)
“And” between values parts separate entries of the source, which are not always exact repeats. Equal values may be shown once. Read-outs that look alike come from different tables or passages of the source.

Experiments:
cattle = experiment: Local tissue irritancy / injection site reactions after intramuscular injection; format: in vivo, Dairy cows (Friesian and Friesian cross); settings: for Injection site reactions, Count, Day 1 / Injection site reactions, Count, Day 3 / Injection site reactions, Count, Day 7 / Injection site reactions, Count, Day 14 / Injection site reactions, Count, Day 21: cows with reaction in group of 4; for Animals with injection site reactions that persisted at least until 21 days after treatment: group of 4 cows
Procedure: (§1) Study Objectives: 1) To measure ML residues in milk and tissues of lactating dairy cows after a single dose of an experimental formulation of eprinomectin, ivermectin, moxidectin or doramectin combined with an inactivated rotavirus, coronavirus and Escherichia coli vaccine was administered by intramuscular injection at 0.3 and 0.4 mg macrocyclic lactone/kg bodyweight. 2) To evaluate local tissue irritancy of the experimental formulations when administered to cattle by intramuscular injection.
(§2) The formulations were administered by deep intramuscular injection in the anterior neck region. Injection sites were clean and dry and inspected for lesions prior to injection. Injections were administered with a different 10 mL syringe for each product. A sterile 18 gauge 1½ inch needle was used for each injection. The time of treatment was recorded. Evidence of pain on injection was assessed.
Injection sites were examined by inspection and palpation at the morning milking on Days 1, 3, 7 and 14. Any visible or palpable reactions were described and measured (width, length and depth). Reactions that persisted after day 14 were re-evaluated on Day 21.

[1] = lactating cattle; cited from earlier work
[2] = ML residues in milk of lactating dairy cows after single IM dose of ML/vaccine combination (LC-MS/MS); format: in vivo, Dairy cows (Friesian and Friesian cross); settings: for ML residue in milk, Day 14 / ML residue in milk, Day 21 / ML residue in milk, Day 7 / concentration at 21 day / concentration at 7 day / concentration at 14 day / ML residue in milk fat, Day 7 / ML residue in milk fat, Day 14 / ML residue in milk fat, Day 21: individual cows; for Residues in milk at 7 days after treatment relative to ACVM MRLs / Residues in milk at 21 days after treatment relative to LOQ: 0.3 and 0.4 mg/kg IM; for concentration at 21 day / concentration at 7 day / concentration at 14 day: female, Friesian and Friesian cross, cattle, intramuscular
Procedure: as §1
Experimental formulations of each of four macrocyclic lactones were separately combined with equal parts of a registered vaccine, Rotavec® Corona (Schering-Plough). The recommended dose of Rotavec® Corona is 2 mL per animal, which was diluted to produce 4 mL of ML/vaccine combination. Each ML/vaccine combination contained 40 mg/mL macrocyclic lactone.
Methods: On day −5, fifty-four animals were identified for screening and were checked for mastitis by palpation of the mammary gland, visualization of the mammary secretions and Rapid Mastitis Test (RMT, Immucell, Portland, Me.). Individual milk samples were collected for somatic cell count (SCC) and thirty-three animals that met the inclusion criteria were selected for the study. Of the thirty-three animals, the cow with the highest average daily milk yield, as assessed over a seven-day period, was allocated as the control. The remaining thirty-two animals were ranked from highest to lowest on average daily milk yield, over the same time period, and divided into four blocks of eight animals each. A random number was generated for each animal using the Microsoft Excel random number generator function. Within each block, the lowest random number was allocated to Group 1, the second lowest to Group 2 and sequentially through to Group 8, creating eight groups of four animals each (Table 18).
On Day 0, the cows were weighed and blood samples were collected from all animals in Groups 1 and 2 for use in a subsequent plasma eprinomectin assay. The blood samples were stored frozen at or colder than −18° C. pending laboratory analysis. Each animal was treated with the indicated formulation at the appropriate dose rate. Doses were calculated based upon the animal's Day 0 bodyweight to provide approximately 40 mg ML/mL. Calculated doses were rounded up to the nearest 0.2 mL.
as §2
Blood samples were collected from all animals in Groups 1 and 2 for plasma eprinomectin assay on Days 1, 3 and 7 and stored frozen as described. The time of blood collection was recorded. Herd test equipment (De Laval) was used to collect an approximately 2% sample representative of the entire milking for each individual cow at the morning milking on each of Days 1-10 following treatment, and at the morning milking on Days 14, 21 and 35. Duplicate subsamples were decanted for each cow in Groups 1-4 and 7-9 and triplicate subsamples were decanted for each cow in Groups 5-6. Each sample from treated animals measured approximately 30 mL. The start and finish times for each milking of the 33 study animals were recorded to give an estimate of the actual time of milk sample collection.
The study animals were milked after the main herd. The milk line was thoroughly flushed with cold water prior to milking the study animals. The herd test equipment was cleaned between samplings. It was washed “in-line” with the milking plant wash. Sample vessels were then further cleaned through a dishwasher. The sampler connections were further cleaned by soaking in hot acid, then rinsed. Milk yields at each milking at which samples were collected were measured and recorded. […]

[3] = cited from earlier work
[4] = nominal 0.3 mg/kg single IM dose of ML/Rotavec Corona combination, milk (whole milk)
[5] = nominal 0.4 mg/kg single IM dose of ML/Rotavec Corona combination, milk (whole milk)
[6] = administered topically to cattle
[7] = milk, 0.3 mg/kg, nominal 0.3 mg/kg single IM dose of ML/Rotavec Corona combination, milk (whole milk), read-out: ML residue in milk, Day 21
[8] = nominal 0.3 mg/kg single IM dose of ML/Rotavec Corona combination, milk fat
[9] = nominal 0.4 mg/kg single IM dose of ML/Rotavec Corona combination, milk fat

For `CCC(C)C1OC2(C=CC1C)CC1CC(CC=C(C)C(OC3CC(OC)C(OC4CC(OC)C(NC(C)=O)C(C)O4)C(C)O3)C(C)C=CC=C3COC4C(O)C(C)=CC(C(=O)O1)C34O)O2` (stereo not shown) [Eprinomectin], the “Injection site reactions, Count, Day 1” value (cattle; 0.3 mg/kg IM) was 0, the “Injection site reactions, Count, Day 3” value (cattle; 0.3 mg/kg IM) was 1 and the “Injection site reactions, Count, Day 7” value (cattle; 0.3 mg/kg IM) was 1. For the same molecule, the “Injection site reactions, Count, Day 14” value (cattle; 0.3 mg/kg IM) was 1, the “Injection site reactions, Count, Day 21” value (cattle; 0.3 mg/kg IM) was 1 and the “Animals with injection site reactions that persisted at least until 21 days after treatment” value (cattle; 0.3 mg/kg IM) was “One”. The “Injection site reactions, Count, Day 1” value (cattle; 0.4 mg/kg IM) was 2, the “Injection site reactions, Count, Day 3” value (cattle; 0.4 mg/kg IM) was 2 and the “Injection site reactions, Count, Day 7” value (cattle; 0.4 mg/kg IM) was 1. The “Injection site reactions, Count, Day 14” value (cattle; 0.4 mg/kg IM) was 1, the “Injection site reactions, Count, Day 21” value (cattle; 0.4 mg/kg IM) was 1 and the “Animals with injection site reactions that persisted at least until 21 days after treatment” value (cattle; 0.4 mg/kg IM) was “One”. For the same molecule, the “Elimination in milk, fold less than ivermectin or moxidectin” value [1] was 50 fold, the “Share of the total dose eliminated in the milk” value [1] was 0.1% and the “Residues in milk at 14 days after treatment relative to LOQ” value ([2]; all study animals (0.3 and 0.4 mg/kg IM)) was “below the limit of quantitation (LOQ)”. For the same molecule, the “Residues in milk at 7 days after treatment” value ([2]; all study animals (0.3 and 0.4 mg/kg IM), compared with MRL) was < 0.02 mg/kg, the “Withholding period (milk)” value ([2]; estimated from residue data relative to the MRLs that apply in Europe) was 7 days and the “ML residue in milk, Day 14” value [2, 4] was <0.0010 mg/kg. The “ML residue in milk, Day 21” value [2, 4] was <0.0010 mg/kg, the “ML residue in milk, Day 7” value ([2]; nominal 0.3 mg/kg single IM dose of ML/Rotavec Corona combination, milk (whole milk), listed as Eprinomectin B1a) was 0.0012 mg/kg and 0.0017 mg/kg and <0.0010 mg/kg and 0.0023 mg/kg and the “ML residue in milk, Day 14” value [2, 5] was <0.0010 mg/kg. The “ML residue in milk, Day 21” value [2, 5] was <0.0010 mg/kg, the “ML residue in milk, Day 7” value ([2]; nominal 0.4 mg/kg single IM dose of ML/Rotavec Corona combination, milk (whole milk), listed as Eprinomectin B1a) was <0.0010 mg/kg (2×) and 0.0021 mg/kg and 0.0013 mg/kg and the “Parent compound share of residues in feces” value [3, 6] was “more than 85%”. For the same molecule, the “Parent compound share of residues in tissues” value [3, 6] was 90% and the Milk-plasma coefficient ([3]; cattle) was ≤ 0.2.

For `CO[C@H]1C[C@H](O[C@H]2[C@H](C)O[C@@H](O[C@@H]3/C(C)=C/C[C@@H]4C[C@@H](C[C@]5(C=C[C@H](C)[C@@H](C6CCCCC6)O5)O4)OC(=O)[C@@H]4C=C(C)[C@@H](O)[C@H]5OC/C(=C\C=C\[C@@H]3C)[C@]54O)C[C@@H]2OC)O[C@@H](C)[C@@H]1O` [Doramectin], the “Residues in milk at 7 days after treatment relative to ACVM MRLs” value [2] was “near or above the ACVM MRLs”, the “Residues in milk at 21 days after treatment relative to LOQ” value [2] was “above the LOQ” and the concentration at 21 day [2, 7] was < 1 ng/g. The concentration at 21 day ([2]; milk, 0.4 mg/kg, nominal 0.4 mg/kg single IM dose of ML/Rotavec Corona combination, milk (whole milk), read-out: ML residue in milk, Day 21) was 1 ng/g, the “ML residue in milk, Day 7” value [2, 4] was 0.0058 mg/kg and 0.0037 mg/kg and 0.0077 mg/kg and 0.0079 mg/kg and the “ML residue in milk, Day 14” value [2, 4] was <0.0010 mg/kg and 0.0012 mg/kg and 0.0031 mg/kg and 0.0015 mg/kg. For the same molecule, the “ML residue in milk, Day 21” value [2, 4] was <0.0010 mg/kg (2×) and 0.0020 mg/kg, the “ML residue in milk, Day 7” value [2, 5] was 0.014 mg/kg and 0.0061 mg/kg and 0.011 mg/kg and 0.0056 mg/kg and the “ML residue in milk, Day 14” value [2, 5] was 0.0025 mg/kg (2×) and 0.0028 mg/kg and <0.0010 mg/kg. For the same molecule, the “ML residue in milk, Day 21” value [2, 5] was 0.0014 mg/kg (2×) and <0.0010 mg/kg.

For `CO/N=C1\C[C@]2(C[C@@H]3C[C@@H](C/C=C(\C)C[C@@H](C)/C=C/C=C4\CO[C@@H]5[C@H](O)C(C)=C[C@@H](C(=O)O3)[C@]45O)O2)O[C@H](/C(C)=C/C(C)C)[C@H]1C` [Moxidectin, moxidectin], the “Residues in milk at 7 days after treatment relative to ACVM MRLs” value [2] was “near or above the ACVM MRLs”, the “Residues in milk at 21 days after treatment relative to LOQ” value [2] was “above the LOQ” and the concentration at 7 day ([2]; milk fat, 0.3 mg/kg, nominal 0.3 mg/kg single IM dose of ML/Rotavec Corona combination, milk fat, read-out: ML residue in milk fat, Day 7) was 800 ng/g. It also gave a concentration at 14 day ([2]; milk fat, 0.3 mg/kg, nominal 0.3 mg/kg single IM dose of ML/Rotavec Corona combination, milk fat, read-out: ML residue in milk fat, Day 14) of 140 ng/g, a concentration at 21 day ([2]; milk fat, 0.3 mg/kg, nominal 0.3 mg/kg single IM dose of ML/Rotavec Corona combination, milk fat, read-out: ML residue in milk fat, Day 21) of 59 ng/g and a concentration at 7 day ([2]; milk fat, 0.4 mg/kg, nominal 0.4 mg/kg single IM dose of ML/Rotavec Corona combination, milk fat, read-out: ML residue in milk fat, Day 7) of 860 ng/g. For the same molecule, the concentration at 7 day ([2]; milk, 0.3 mg/kg, nominal 0.3 mg/kg single IM dose of ML/Rotavec Corona combination, milk (whole milk), read-out: ML residue in milk, Day 7) was 40 ng/g, the concentration at 14 day ([2]; milk, 0.3 mg/kg, nominal 0.3 mg/kg single IM dose of ML/Rotavec Corona combination, milk (whole milk), read-out: ML residue in milk, Day 14) was 7.8 ng/g and the concentration at 21 day [2, 7] was 2.6 ng/g. The concentration at 7 day ([2]; milk, 0.4 mg/kg, nominal 0.4 mg/kg single IM dose of ML/Rotavec Corona combination, milk (whole milk), read-out: ML residue in milk, Day 7) was 50 ng/g, the “ML residue in milk, Day 7” value [2, 4] was 0.063 mg/kg and 0.042 mg/kg and 0.034 mg/kg and the “ML residue in milk, Day 14” value [2, 4] was 0.010 mg/kg and 0.0099 mg/kg and 0.0079 mg/kg. The “ML residue in milk, Day 21” value [2, 4] was 0.0040 mg/kg and 0.0031 mg/kg and 0.0041 mg/kg, the “ML residue in milk fat, Day 7” value [2, 8] was 1.1 mg/kg and 1.0 mg/kg and 0.75 mg/kg and the “ML residue in milk fat, Day 14” value [2, 8] was 0.26 mg/kg and 0.24 mg/kg and 0.18 mg/kg. For the same molecule, the “ML residue in milk fat, Day 21” value [2, 8] was 0.080 mg/kg and 0.068 mg/kg and 0.075 mg/kg, the “ML residue in milk, Day 7” value [2, 5] was 0.044 mg/kg and 0.056 mg/kg and 0.037 mg/kg and the “ML residue in milk, Day 14” value [2, 5] was 0.0081 mg/kg and 0.012 mg/kg and 0.015 mg/kg and 0.0069 mg/kg. For the same molecule, the “ML residue in milk, Day 21” value [2, 5] was 0.0055 mg/kg (2×) and 0.0037 mg/kg and 0.0023 mg/kg, the “ML residue in milk fat, Day 7” value [2, 9] was 1.2 mg/kg and 1.5 mg/kg and 1.0 mg/kg and the “ML residue in milk fat, Day 14” value [2, 9] was 0.17 mg/kg and 0.37 mg/kg and 0.47 mg/kg and 0.15 mg/kg. For the same molecule, the “ML residue in milk fat, Day 21” value [2, 9] was 0.091 mg/kg and 0.12 mg/kg and 0.14 mg/kg and 0.057 mg/kg.
